Results on 4 compounds are retold here after paper PMC10004634 (PLOS ONE, 2023).

The structures appear in SMILES notation. Where two headings read alike, the source gives them in different places.

Assay in all cases: biochemical
Holding throughout (design): KINOMEscan scanMAX competition binding, DNA-tagged kinases, qPCR read-out, percent control at 300 nM
In general terms: In qPCR the cycle at which signal appears reflects the starting amount.

The target of assay [1] is MKNK1 (Homo sapiens, UniProt Q9BUB5).
MKNK1, sequence (Q9BUB5 whole entry): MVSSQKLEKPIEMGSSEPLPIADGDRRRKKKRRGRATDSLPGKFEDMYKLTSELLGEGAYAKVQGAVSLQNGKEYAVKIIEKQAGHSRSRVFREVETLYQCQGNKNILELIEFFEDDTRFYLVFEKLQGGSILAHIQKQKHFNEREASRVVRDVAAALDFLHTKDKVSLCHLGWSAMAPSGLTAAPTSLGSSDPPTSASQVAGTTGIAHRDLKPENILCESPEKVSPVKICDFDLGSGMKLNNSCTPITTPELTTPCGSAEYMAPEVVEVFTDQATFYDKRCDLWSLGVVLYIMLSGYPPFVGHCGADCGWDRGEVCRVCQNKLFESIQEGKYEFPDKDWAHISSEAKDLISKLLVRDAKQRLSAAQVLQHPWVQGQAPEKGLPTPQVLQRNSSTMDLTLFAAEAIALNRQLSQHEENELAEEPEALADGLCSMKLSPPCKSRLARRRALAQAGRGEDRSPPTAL
The target in assay [2] is T1, TAOK1 (Homo sapiens, UniProt Q7L7X3).
T1 sequence (Q7L7X3 1-1001): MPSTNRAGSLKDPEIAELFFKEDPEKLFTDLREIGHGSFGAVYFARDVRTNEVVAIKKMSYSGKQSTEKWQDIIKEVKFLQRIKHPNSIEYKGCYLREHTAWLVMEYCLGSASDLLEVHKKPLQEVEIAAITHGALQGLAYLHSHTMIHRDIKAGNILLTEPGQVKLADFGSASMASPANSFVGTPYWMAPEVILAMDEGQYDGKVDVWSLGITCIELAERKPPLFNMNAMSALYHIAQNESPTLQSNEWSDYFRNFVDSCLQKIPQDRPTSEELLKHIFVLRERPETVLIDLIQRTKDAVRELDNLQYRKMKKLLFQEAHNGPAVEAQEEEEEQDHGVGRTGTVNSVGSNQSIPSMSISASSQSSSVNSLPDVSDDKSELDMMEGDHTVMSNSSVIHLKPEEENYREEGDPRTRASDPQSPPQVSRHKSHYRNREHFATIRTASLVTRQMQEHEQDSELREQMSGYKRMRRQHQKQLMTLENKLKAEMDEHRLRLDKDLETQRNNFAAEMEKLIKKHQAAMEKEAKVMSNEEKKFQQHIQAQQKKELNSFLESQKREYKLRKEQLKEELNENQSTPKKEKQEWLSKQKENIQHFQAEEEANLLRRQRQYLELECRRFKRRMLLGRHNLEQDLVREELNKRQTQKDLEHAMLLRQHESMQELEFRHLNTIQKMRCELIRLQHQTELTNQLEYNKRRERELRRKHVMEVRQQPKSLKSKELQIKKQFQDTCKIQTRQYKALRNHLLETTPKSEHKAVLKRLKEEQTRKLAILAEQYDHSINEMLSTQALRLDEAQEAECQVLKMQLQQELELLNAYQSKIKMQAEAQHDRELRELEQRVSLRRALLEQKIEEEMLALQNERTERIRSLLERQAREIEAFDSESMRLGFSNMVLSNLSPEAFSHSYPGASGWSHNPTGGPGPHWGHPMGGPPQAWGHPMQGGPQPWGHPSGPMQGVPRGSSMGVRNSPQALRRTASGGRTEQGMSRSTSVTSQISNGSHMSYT

Assay [3] addresses T2, PHKG2 (Homo sapiens, UniProt P15735).
T2 sequence (P15735 1-406): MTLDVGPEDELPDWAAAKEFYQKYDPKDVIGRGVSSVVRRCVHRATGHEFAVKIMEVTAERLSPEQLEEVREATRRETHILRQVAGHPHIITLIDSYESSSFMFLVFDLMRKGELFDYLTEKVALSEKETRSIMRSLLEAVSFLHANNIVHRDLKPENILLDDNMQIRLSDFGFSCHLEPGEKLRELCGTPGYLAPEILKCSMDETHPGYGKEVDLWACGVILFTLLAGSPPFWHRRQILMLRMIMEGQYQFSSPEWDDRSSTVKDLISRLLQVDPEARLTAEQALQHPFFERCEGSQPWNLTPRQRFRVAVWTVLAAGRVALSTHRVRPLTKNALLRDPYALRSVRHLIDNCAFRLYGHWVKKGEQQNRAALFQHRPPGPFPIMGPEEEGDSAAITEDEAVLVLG

Assay [4] concerns the target INSR (Homo sapiens, UniProt P06213).
The target in assay [5] is T3, FLT3(N841I) (Homo sapiens, UniProt P36888, N841I).
T3 sequence (P36888 1-993 N841I): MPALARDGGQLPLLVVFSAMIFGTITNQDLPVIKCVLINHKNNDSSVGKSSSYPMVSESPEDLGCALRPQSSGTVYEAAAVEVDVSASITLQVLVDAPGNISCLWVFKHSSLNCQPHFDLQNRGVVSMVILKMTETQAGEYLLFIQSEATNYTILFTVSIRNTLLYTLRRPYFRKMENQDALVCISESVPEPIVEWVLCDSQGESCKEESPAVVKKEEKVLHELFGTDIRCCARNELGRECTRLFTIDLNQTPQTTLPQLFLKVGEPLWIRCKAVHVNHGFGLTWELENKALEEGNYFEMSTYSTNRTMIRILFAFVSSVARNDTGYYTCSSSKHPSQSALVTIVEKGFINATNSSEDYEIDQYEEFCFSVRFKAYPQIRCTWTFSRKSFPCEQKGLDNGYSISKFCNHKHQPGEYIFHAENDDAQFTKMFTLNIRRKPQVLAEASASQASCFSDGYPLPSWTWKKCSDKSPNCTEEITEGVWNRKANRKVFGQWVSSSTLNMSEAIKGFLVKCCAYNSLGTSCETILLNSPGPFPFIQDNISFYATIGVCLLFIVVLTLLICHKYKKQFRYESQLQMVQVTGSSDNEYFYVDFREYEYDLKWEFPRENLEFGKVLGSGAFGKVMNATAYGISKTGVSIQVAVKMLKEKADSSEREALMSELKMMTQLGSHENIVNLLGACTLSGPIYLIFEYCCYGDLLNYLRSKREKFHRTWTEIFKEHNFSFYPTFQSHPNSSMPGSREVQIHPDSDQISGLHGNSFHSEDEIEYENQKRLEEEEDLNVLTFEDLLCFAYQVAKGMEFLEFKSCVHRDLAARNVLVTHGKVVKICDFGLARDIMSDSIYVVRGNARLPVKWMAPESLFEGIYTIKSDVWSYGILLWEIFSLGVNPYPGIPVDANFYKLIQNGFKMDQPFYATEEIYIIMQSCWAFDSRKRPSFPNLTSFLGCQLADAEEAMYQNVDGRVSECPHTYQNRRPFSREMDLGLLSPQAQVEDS

Assay [6] has as its target T4, PAK7 (Homo sapiens, UniProt Q9P286).
T4 construct: gene PAK5

The mark [7] stands for this setting: read-out: Percent control / Tirabrutinib.
[8] abbreviates: read-out: Percent control / Acalabrutinib.
Setting [9] is: read-out: Percent control / Ibrutinib.
[10] abbreviates: read-out: Percent control / Zanubrutinib.

T4 sequence (Q9P286 whole entry): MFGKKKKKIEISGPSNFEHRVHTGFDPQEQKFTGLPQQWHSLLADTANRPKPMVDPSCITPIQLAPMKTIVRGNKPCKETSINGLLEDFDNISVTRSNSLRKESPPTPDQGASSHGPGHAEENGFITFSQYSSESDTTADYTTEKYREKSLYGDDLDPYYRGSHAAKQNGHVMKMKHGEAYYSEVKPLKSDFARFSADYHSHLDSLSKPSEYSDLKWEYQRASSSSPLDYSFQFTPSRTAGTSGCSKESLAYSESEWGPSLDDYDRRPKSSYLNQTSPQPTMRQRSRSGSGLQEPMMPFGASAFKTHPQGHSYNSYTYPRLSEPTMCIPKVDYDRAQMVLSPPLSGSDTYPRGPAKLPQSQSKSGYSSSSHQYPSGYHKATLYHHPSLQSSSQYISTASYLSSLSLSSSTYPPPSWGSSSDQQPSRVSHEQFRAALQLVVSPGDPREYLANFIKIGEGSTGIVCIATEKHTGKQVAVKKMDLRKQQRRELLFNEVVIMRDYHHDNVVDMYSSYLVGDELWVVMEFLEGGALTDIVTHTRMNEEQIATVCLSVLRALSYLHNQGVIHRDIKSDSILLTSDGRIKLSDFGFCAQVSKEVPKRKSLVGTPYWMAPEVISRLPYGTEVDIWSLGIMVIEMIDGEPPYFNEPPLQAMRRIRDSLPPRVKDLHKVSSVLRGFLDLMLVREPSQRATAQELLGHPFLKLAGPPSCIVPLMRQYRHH
INSR, sequence (P06213 whole entry): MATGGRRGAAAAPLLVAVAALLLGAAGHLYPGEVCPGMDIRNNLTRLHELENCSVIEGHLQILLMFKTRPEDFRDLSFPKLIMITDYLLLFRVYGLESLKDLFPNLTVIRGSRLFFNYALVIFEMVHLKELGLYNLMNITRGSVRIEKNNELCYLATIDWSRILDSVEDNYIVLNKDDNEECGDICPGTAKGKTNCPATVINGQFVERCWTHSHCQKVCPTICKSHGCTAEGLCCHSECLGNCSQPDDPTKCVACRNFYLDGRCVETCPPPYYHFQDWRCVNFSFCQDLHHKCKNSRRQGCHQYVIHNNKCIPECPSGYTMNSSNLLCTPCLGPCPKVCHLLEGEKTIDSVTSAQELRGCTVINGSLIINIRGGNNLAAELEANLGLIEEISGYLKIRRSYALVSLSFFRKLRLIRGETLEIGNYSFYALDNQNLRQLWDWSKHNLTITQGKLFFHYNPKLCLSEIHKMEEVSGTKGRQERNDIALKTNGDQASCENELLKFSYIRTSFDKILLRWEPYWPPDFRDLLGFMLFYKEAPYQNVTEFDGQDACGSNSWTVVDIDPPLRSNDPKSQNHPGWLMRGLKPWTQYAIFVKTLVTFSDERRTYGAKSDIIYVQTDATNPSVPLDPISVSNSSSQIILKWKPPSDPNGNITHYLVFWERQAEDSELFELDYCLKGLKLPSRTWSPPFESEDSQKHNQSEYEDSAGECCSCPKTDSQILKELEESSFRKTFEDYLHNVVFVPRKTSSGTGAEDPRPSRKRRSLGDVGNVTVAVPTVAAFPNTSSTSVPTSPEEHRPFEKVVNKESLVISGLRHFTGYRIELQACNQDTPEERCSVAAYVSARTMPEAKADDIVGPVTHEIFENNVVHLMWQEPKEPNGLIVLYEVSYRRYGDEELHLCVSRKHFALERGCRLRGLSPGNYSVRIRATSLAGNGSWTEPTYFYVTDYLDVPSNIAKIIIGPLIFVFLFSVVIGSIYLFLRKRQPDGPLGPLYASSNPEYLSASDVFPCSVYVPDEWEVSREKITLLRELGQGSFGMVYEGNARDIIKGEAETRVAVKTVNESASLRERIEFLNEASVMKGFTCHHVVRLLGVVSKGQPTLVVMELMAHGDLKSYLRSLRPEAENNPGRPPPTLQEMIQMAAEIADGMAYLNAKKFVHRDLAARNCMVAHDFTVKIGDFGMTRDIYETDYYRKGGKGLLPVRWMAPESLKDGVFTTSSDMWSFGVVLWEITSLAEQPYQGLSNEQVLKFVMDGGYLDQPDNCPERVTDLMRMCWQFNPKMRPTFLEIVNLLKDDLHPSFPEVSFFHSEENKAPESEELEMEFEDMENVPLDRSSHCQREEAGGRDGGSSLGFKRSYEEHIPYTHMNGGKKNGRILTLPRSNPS

Take `CC#CC(=O)N1CC[C@@H](n2c(=O)n(-c3ccc(Oc4ccccc4)cc3)c3c(N)ncnc32)C1` [Tirabrutinib]: the remaining binding at 0.3 µM in assay [1] (setting [7]) turned out to be 87%; in assay [2] (setting [7]), 82%; in assay [3] (setting [7]), 93%; in assay [4] (setting [7]) it was 72%.

Consider `CC#CC(=O)N1CCC[C@H]1c1nc(-c2ccc(C(=O)Nc3ccccn3)cc2)c2c(N)nccn12` [Acalabrutinib], for which the remaining binding at 0.3 µM in assay [5] (setting [8]) came to 85%; in assay [1] (setting [8]) it was 84%; in assay [6] (setting [8]) it was 76%; in assay [4] (setting [8]), 93%.

On to `C=CC(=O)N1CCC[C@@H](n2nc(-c3ccc(Oc4ccccc4)cc3)c3c(N)ncnc32)C1` [Ibrutinib], for which the remaining binding at 0.3 µM in assay [5] (setting [9]) was 39%; in assay [1] (setting [9]) it was 89%; in assay [2] (setting [9]), 81%; in assay [6] (setting [9]), 94%; in assay [3] (setting [9]) it was 81%; in assay [4] (setting [9]), 92%.

Take `C=CC(=O)N1CCC([C@@H]2CCNc3c(C(N)=O)c(-c4ccc(Oc5ccccc5)cc4)nn32)CC1` [Zanubrutinib]: the remaining binding at 0.3 µM was 100% in assay [5] (setting [10]); 100% in assay [1] (setting [10]); 63% in assay [2] (setting [10]); 87% in assay [6] (setting [10]); 92% in assay [3] (setting [10]); 100% in assay [4] (setting [10]).
